Laboratory results reported in patent US7906491B2 (Univisitair Medisch Centrum Utrecht, priority 2002, dated 2011).

How the values were obtained:
PKAI = test: Relative affinity for PKAI (cAMP = 1), in vitro; type: binding; details: relative to cAMP = 1
Epac = target: T1, Epac (Homo sapiens, UniProt O95398); test: Relative affinity for Epac (cAMP = 1), in vitro; type: binding; details: relative to cAMP = 1
T1 sequence (O95398 1-923): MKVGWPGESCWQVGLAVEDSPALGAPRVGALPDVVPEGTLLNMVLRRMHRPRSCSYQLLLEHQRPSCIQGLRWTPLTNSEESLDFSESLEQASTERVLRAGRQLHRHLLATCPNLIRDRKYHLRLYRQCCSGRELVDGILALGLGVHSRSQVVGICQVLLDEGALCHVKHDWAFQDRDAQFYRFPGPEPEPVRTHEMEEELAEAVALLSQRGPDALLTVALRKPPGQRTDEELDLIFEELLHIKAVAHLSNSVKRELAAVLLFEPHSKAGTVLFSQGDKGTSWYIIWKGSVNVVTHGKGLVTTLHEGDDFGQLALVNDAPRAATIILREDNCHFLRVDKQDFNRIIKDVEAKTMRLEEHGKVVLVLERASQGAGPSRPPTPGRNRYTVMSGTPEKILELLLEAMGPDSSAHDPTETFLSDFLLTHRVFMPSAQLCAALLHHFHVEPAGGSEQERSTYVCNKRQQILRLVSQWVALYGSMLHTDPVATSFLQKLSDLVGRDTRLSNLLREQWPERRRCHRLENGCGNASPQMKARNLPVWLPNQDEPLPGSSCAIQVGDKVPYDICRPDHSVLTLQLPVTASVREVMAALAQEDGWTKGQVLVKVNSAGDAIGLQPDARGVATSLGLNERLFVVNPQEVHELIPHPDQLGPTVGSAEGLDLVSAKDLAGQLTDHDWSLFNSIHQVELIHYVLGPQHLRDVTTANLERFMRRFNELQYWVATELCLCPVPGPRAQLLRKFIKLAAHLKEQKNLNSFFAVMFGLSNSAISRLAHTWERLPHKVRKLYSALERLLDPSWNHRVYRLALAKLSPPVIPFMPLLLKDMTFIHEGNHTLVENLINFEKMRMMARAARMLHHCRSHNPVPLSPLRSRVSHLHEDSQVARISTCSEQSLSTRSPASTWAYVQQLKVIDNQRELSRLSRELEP

Epac1-ΔDEP1 = target: T2, Epac1-ΔDEP1 (Homo sapiens, UniProt O95398); test: In vitro GEF assay: Epac activity in the exchange reaction towards Rap (mantGDP-loaded Rap1b); type: biochemical; details: in vitro in the exchange reaction towards Rap; also: key: +++: activity comparible to I-007; ++: activity between I-007 and cAMP; +: activity comparible to cAMP; ±: activity less than cAMP
T2 sequence (O95398 191-923 limits assumed): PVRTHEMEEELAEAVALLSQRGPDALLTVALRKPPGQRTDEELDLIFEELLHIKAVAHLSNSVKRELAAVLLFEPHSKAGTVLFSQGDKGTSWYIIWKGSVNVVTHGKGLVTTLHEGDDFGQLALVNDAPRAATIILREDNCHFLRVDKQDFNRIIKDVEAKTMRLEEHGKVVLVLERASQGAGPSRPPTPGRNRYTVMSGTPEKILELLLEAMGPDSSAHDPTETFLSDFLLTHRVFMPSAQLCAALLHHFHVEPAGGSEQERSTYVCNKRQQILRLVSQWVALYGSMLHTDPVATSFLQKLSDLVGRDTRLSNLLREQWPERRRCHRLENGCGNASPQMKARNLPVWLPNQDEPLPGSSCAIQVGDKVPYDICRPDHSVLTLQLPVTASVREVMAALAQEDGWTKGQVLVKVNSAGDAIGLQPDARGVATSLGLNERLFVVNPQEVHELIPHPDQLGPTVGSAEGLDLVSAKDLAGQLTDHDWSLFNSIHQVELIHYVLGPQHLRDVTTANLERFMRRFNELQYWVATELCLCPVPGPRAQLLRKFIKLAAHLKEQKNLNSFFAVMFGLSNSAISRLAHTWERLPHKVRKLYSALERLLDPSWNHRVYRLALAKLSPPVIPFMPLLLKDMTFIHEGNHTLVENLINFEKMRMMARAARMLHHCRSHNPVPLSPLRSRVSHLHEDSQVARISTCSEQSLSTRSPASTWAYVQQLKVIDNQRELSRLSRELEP
Description: In vitro GEF assays were performed as described (3,16). […] Buffer conditions were 50 mM Tris pH7.4, 150 mM NaCl, 5% glycerol, 5 mM DTE, 60 μM GTP. Reactions were carried out in 96-well plates and measured in a Cary Eclipse from Varian Inc., using the manufacturers software.

PKAII = test: Relative affinity for PKAII (cAMP = 1), in vitro; type: binding; details: relative to cAMP = 1

Compound	Relative affinity CAMP = 1 PKAI (PKAI)	Relative affinity CAMP = 1 Epac (Epac)	Relative activity of Epac* (Epac1-ΔDEP1)	Relative affinity CAMP = 1 PKAII (PKAII)
2′-O-ethyladenosine-3′,5′-cyclic monophosphate [Compound I-008]	0.0043	0.05	+	–
2′-O-isobutyladenosine-3′,5′-cyclic monophosphate [Compound I-011]	0.0009	0.017	±	–
2′-O-methyladenosine-3′,5′-cyclic monophosphate [Compound I-005]	0.005	0.12	–	0.005
2′-O-n-butyladenosine-3′,5′-cyclic monophosphate [Compound I-010]	0.0008	0.03	+	–
2′-O-propyladenosine-3′,5′-cyclic monophosphate [Compound I-009]	0.001	0.03	+	–
8-(2,3,5,6-tetrafluoro-phenylthio)-2′-O-methyladenosine-3′,5′-cyclic monophosphate [Compound I-124]	–	4.7	++	–
8-(2,4-dichloro-phenylthio)-2′-O-methyladenosine-3′,5′-cyclic monophosphate [Compound I-126]	–	3.1	++	–
8-(2-amino-ethylthio)-2′-O-methyladenosine-3′,5′-cyclic monophosphate [Compound I-118]	–	0.34	±	–
8-(2-hydroxy-ethylthio)-2′-O-methyladenosine-3′,5′-cyclic monophosphate [Compound I-116]	–	1.2	+	–
8-(3-methoxy-phenylthio)-2′-O-methyladenosine-3′,5′-cyclic monophosphate [Compound I-122]	–	2	+	–
8-(4-Chloro-phenylthio)-inosine-3′,5′-cyclic monophosphate [Compound I-139]	–	–	+	–
8-(4-chloro-phenylthio)-2′-(N,N-dimethyl)-carbamoyl-adenosine-3′,5′-cyclic monophosphate [Compound I-127]	–	<0.002	–	–
8-(4-chloro-phenylthio)-2′-O-methyladenosine-3′,5′-cyclic monophosphorothioate, Rp-isomer [Compound I-130]	–	0.06	±	–
8-(4-chloro-phenylthio)-2′-O-methyladenosine-3′,5′-cyclic monophosphorothioate, Sp-isomer [Compound I-134]	–	–	+	–
8-(4-chloro-phenylthio)-2′-deoxyadenosine-3′,5′-cyclic monophosphorothioate, Rp-isomer [Compound I-137]	–	–	+	–
8-(4-chloro-phenylthio)-2′-deoxyadenosine-3′,5′-cyclic monophosphorothioate, Sp-isomer [Compound I-138]	–	–	+	–

Compound	Relative affinity CAMP = 1 PKAI (PKAI)	Relative affinity CAMP = 1 Epac (Epac)	Relative activity of Epac* (Epac1-ΔDEP1)	Relative affinity CAMP = 1 PKAII (PKAII)
8-(4-hydroxy-phenylthio)-2′-O-methyladenosine-3′,5′-cyclic monophosphate [Compound I-125]	–	6.4	+++	–
8-(4-isopropyl-phenylthio)-2′-O-methyladenosine-3′,5′-cyclic monophosphate [Compound I-123]	–	4.8	++	–
8-(4-methyl-phenylthio)-2′-O-methyladenosine-3′,5′-cyclic monophosphate [Compound I-121]	–	5.1	+++	–
8-(benzimidazolyl-2-thio)-2′-O-methyladenosine-3′,5′-cyclic monophosphate [Compound I-115]	–	0.09	+	–
8-(benzothiazolyl-2-thio)-2′-O-methyladenosine-3′,5′-cyclic monophosphate [Compound I-120]	–	0.17	+	–
8-(pyridinyl-2-thio)-2′-O-methyladenosine-3′,5′-cyclic monophosphate [Compound I-119]	–	0.8	++	–
8-benzyloxy-2′-O-methyladenosine-3′,5′-cyclic monophosphate [Compound I-132]	–	0.18	+	–
8-bromo-2′-O-methyladenosine-3′,5′-cyclic monophosphorothioate, Rp-isomer [Compound I-129]	–	0.05	±	–
8-bromo-2′-O-methyladenosine-3′,5′-cyclic monophosphorothioate, Sp-isomer [Compound I-133]	–	–	+	–
8-bromo-2′-deoxyadenosine-3′,5′-cyclic monophosphorothioate, Rp-isomer [Compound I-135]	–	–	+	–
8-chloro-2′-O-methyladenosine-3′,5′-cyclic monophosphate [Compound I-141]	0.012	0.92	–	0.0002
8-cyclohexylamino-2′-deoxyadenosine-3′,5′-cyclic monophosphate [Compound I-140]	–	–	+	–
8-methoxy-2′-O-methyladenosine-3′,5′-cyclic monophosphate [Compound I-131]	–	0.36	+	–
8-phenylethylamino-2′-O-methyladenosine-3′,5′-cyclic monophosphate [Compound I-111]	–	0.08	±	–
CCSc1nc2c(N)ncnc2n1C1OC2COP(=O)(O)OC2C1OC (stereo not shown) [Compound I-117, 8-ethylthio-2′-O-methyladenosine-3′,5′-cyclic monophosphate]	–	1.8	+	–
Nc1ncnc2c1nc(Br)n2[C@H]1C[C@@H]2O[P@@](=O)(S)OC[C@H]2O1 [Compound I-136, 8-bromo-2′-deoxyadenosine-3′,5′-cyclic monophosphorothioate, Sp-isomer]	–	–	+	–
